Tested on: powdery mildew of wheat (Erysiphe graminis forma specialis tritici)
Assay: Activity against powdery mildew of wheat (protective spray test on potted seedlings)
Format: in vivo
Conditions: evaluated after 7 days
Protocol: The active ingredients, separately or together, are formulated as 10% emulsion in a mixture of 63% by weight of cyclohexanone and 27% by weight of emulsifier, and diluted with water to the desired concentration.
Evaluation is carried out by determining the infected leaf areas in percent. These percentages are converted into efficacies. The efficacy (W) is calculated as follows using Abbot's formula: […]
α corresponds to the fungal infection of the treated plants in % and β corresponds to the fungal infection of the untreated (control) plants in % An efficacy of 0 means that the infection level of the treated plants corresponds to that of the untreated control plants; an efficacy of 100 means that the treated plants were not infected.
The expected efficacies of the mixtures of the active ingredients were determined using Colby's formula [R. S. Colby, Weeds 15, 20-22 (1967)] and compared with the observed efficacies.
Colby formula: E=x+y −x·y/100
E expected efficacy, expressed in % of the untreated control, when using the mixture of the active ingredients A and B at the concentrations a and b x efficacy, expressed in % of the untreated control, when using active ingredient A at a concentration of a y efficacy, expressed in % of the untreated control, when using active ingredient B at a concentration of b Leaves of potted […] seedlings of the variety “Fruhgold” were sprayed to runoff point with an aqueous formulation of active ingredient prepared from a stock solution consisting of 10% of active ingredient, 63% of cyclohexanone and 27% of emulsifier. 24 hours after the spray coating had dried on, the leaves were dusted with spores of powdery mildew of wheat (Erysiphe graminis forma specialis tritici). The test plants were subsequently kept in a greenhouse at 20-24° C. and 60-90% relative atmospheric humidity. After 7 days, the extent of the mildew development was determined visually in % infection of the total leaf area.

[1] = 16 ppm active ingredient in the spray liquor
[2] = 63 ppm active ingredient in the spray liquor

| Structure (SMILES) | Efficacy in % of the untreated control [1] [%] | Efficacy in % of the untreated control [2] [%] |
| --- | --- | --- |
| O=C(Nc1ccccc1-c1ccc(Cl)cc1)c1cccnc1Cl [I.2] | 0 | 0 |
| O=C(Nc1ccccc1-c1ccc(F)cc1)c1cccnc1Cl [I.1] | 0 | 0 |

Source: patent US6489348B1, “Fungicidal mixtures based on amide compounds and pyridine derivatives” (BASF Aktiengesellschaft, priority 1997, dated 2002)
